In data set [1] the test system is E. coli (ATCC CRM 8739) biofilm. The class given is cell-based, Escherichia coli. Conditions: ATCC CRM 8739, 24 h. The protocol: (§1) The anti-biofilm activities of the peptides against S. aureus (ATCC 6538), MRSA (NCTC 12493), E. faecalis (NCTC 12493), E. coli (ATCC CRM 8739), K. pneumoniae (ATCC 43816), and P. aeruginosa (ATCC CRM 9027) were evaluated.
(§2) The bacteria were inoculated in a different medium (Gram-positive bacteria were in TSB and Gram-negative bacteria were in LB) overnight, and the subculture was conducted in the same medium. When the bacteria reached a specific density, 100 µL of the dilution was added to each well of the 96-well microplate. Then 1 µL of peptide at a series of concentrations, the same concentration in the antimicrobial assay, were added into the well together with the bacteria. The plates were put into a moist shaking incubator with a speed of 200 rpm, and the temperature was set at 37 ℃. After a 24-h incubation, the liquid in the wells was aspirated, and each was washed twice by 100 µL PBS. One hundred µL of methanol were added into each well to stabilise the biofilm. After air-drying, 100 µL crystal violet was used to dye the biofilm, and they were dissolved in the 100 µL glacial acidic acid after drying. The solutions were transferred to a new microplate, and the absorbance of each well was tested by a microplate reader (EL808, Biolise BioTek Winooski, Minneapolis, MN, USA) at 595 nm wavelength. MBIC was the minimum concentration of the peptide showing no biofilm formation.
The bacteria were inoculated in a different medium (Gram-positive bacteria were in TSB and Gram-negative bacteria were in LB) overnight, and the subculture was conducted in the same medium. When the bacteria reached a specific density, 100 µL of the dilution was added to each well of the 96-well microplates. The plates were put into a moist shaking incubator with a speed of 200 rpm and the temperature was 37 ℃. After a 24 h incubation, the liquid in the wells was aspirated and they were washed twice by 100 µL PBS of each well. The peptides with the same concentrations were diluted in the corresponding medium and 100 µL were added into each well. After a 24-h incubation, the liquid in the wells was aspirated and they were washed twice by 100 µL PBS. One hundred µL of methanol were added into the wells to stabilise the biofilms. After being air-dried, 100 µL crystal violet was used to dye the biofilm, and they were dissolved in the 100 µL glacial acidic acid after drying. The solutions were transferred to a new microplate, and the absorbance of each well was tested by a microplate reader (EL808, Biolise BioTek Winooski, Minneapolis, USA) at 595 nm wavelength.

Another data set has as its system E. coli (ATCC BAA-2340). The class given is cell-based, Escherichia coli. The protocol:
The method of antimicrobial assay is based on the Methods for Dilution Antimicrobial Susceptibility Tests for Bacteria that Grow Aerobically from the Clinical and Laboratory Standards Institute (CLSI).The antimicrobial activities of peptides were evaluated against Gram-positive bacteria S. aureus (ATCC 6538), MRSA (NCTC 12493), E. faecalis (NCTC 12493), Gram-negative bacteria E. coli (ATCC CRM 8739), K. pneumoniae (ATCC 43816), P. aeruginosa (ATCC CRM 9027), yeast C. albicans (ATCC CRM 10231) and clinical isolates MRSA (B042 V2E1 A), E. coli (ATCC BAA-2340), K. pneumoniae (ATCC BAA-1705), P. aeruginosa (B004 V2S2 B).
At the first stage of the assay, 20 μL bacteria were cultured in 100 mL Mueller Hinton Broth (MHB) or Yeast Extract–Peptone–Dextrose broth (YPD-B), respectively, and was incubated overnight. Then, microorganisms were subcultured in 20 mL fresh MHB or YPD-B to achieve cultures in the logarithmic phase (1 × 10^8 CFU/mL), which can be verified by optical density (OD) (The OD of Gram-positive bacteria is 0.23, OD of Gram-negative bacteria is 0.4, and OD of yeast is 0.15), and viable cell counts. Then, the medium was used to dilute the cultures to specific cell densities (Gram-negative and Gram-positive bacteria: 5 × 10^5 CFU/mL; yeast: 1 × 10^6 CFU/mL), which were the final concentrations of bacterial suspensions used in the assay. The peptides were dissolved in DMSO to reach a final concentration of 512 µM. A series of two-fold dilutions ranging from 512 µM to 1 µM were dosed in the 96-well plates.
Antimicrobial assays were conducted in 96-well plates, which were divided into five groups, including a negative control group (PBS), a positive control group (20 μg/mL norfloxacin for bacteria and 10 μg/mL amphotericin B for yeast), vehicle control (1% DMSO), blank control (MHB or YPD-B), and a peptide group. Each microorganism had five repetitions, and each well contained 1 µL corresponding solution and 99 µL culture. After incubation at 37 °C overnight, the absorbance of each well was tested by a microplate reader (EL808, Biolise BioTek Winooski, Minneapolis, USA) under a 550 nm wavelength. The MIC is the lowest concentration at which no bacterial growth can be observed.
The next day, 10 µL of every clear well was taken out to be cultured on a Mueller Hinton Agar (MHA) plate and incubated at 37 °C for 16–20 h. The MBC is the lowest concentration without any bacterial colonies, which means at this concentration, the peptide reduces the viability of the pathogen by more than 99.9%.

Data set [2] deals with MRSA (NCTC 12493) biofilm. The class given is cell-based, Methicillin-resistant Staphylococcus aureus. The following applies: NCTC 12493, 24 h. The protocol: as §1, §2
The bacteria were inoculated in a different medium (Gram-positive bacteria were in TSB and Gram-negative bacteria were in LB) overnight, and the subculture was conducted in the same medium. When the bacteria reached a specific density, 100 µL of the dilution was added to each well of the 96-well microplates. The plates were put into a moist shaking incubator with a speed of 200 rpm and the temperature was 37 ℃. […] The solutions were transferred to a new microplate, and the absorbance of each well was tested by a microplate reader (EL808, Biolise BioTek Winooski, Minneapolis, USA) at 595 nm wavelength.

Data set [3] has as its system wax moth (Galleria mellonella). Description: Toxicity of peptides to waxworms. The data set is classed as in vivo. Conditions: uninfected waxworms, 7.5, 15 and 30 mg/kg, injection.

The values that follow come from publication PMC8388802, “Study on the Structure-Activity Relationship of an Antimicrobial Peptide, Brevinin-2GUb, from the Skin Secretion of Hylarana guentheri” (Antibiotics, 2021).

Values after ≈ are worked out from the molar mass of the structure shown. Where a SMILES comes first, the peptide text is derived from it.

For orientation: MBC means the smallest concentration meeting the test's criterion for killing. Low readings indicate greater bactericidal potency, high ones weaker bactericidal potency. The MIC is the least concentration at which growth counts as inhibited. A higher MIC goes with a need for much substance.

Regarding `CC[C@H](C)[C@H](NC(=O)[C@@H](NC(=O)CN)C(C)C)C(=O)N[C@H](C(=O)N[C@@H](CCCCN)C(=O)N[C@H](C(=O)N[C@@H](CC(C)C)C(N)=O)[C@@H](C)O)[C@@H](C)CC` [Peptide 7-tB2U-K] (H-GVIIKTL-NH2), in data set [1], the MBEC is >512 µM and the MBIC is >512 µM. In the data set with E. coli (ATCC BAA-2340), the MBC was >512 µM and the MIC was >512 µM.
On to `CC[C@H](C)[C@H](NC(=O)[C@@H](NC(=O)CN)C(C)C)C(=O)N[C@H](C(=O)N[C@@H](CCCCN)C(=O)N[C@H](C(=O)N[C@@H](CC(C)C)C(=O)N[C@@H](CCCCN)C(=O)NCC(=O)N[C@@H](C)C(=O)N[C@@H](C)C(=O)N[C@@H](CCCCN)C(=O)N[C@H](C(=O)N[C@H](C(N)=O)C(C)C)[C@@H](C)O)[C@@H](C)O)[C@@H](C)CC` [Peptide 14-tB2U-K] (H-GVIIKTLKGAAKTV-NH2), for which, in data set [1], the MBEC is >512 µM and the MBIC is >512 µM. For the same molecule, in the data set with E. coli (ATCC BAA-2340), the MBC is >512 µM and the MIC is >512 µM.
With `CC[C@H](C)[C@H](NC(=O)[C@@H](NC(=O)CN)C(C)C)C(=O)N[C@H](C(=O)N[C@@H](CCCCN)C(=O)N[C@@H](CCCCN)C(=O)N[C@@H](CC(C)C)C(=O)N[C@@H](CCCCN)C(=O)NCC(=O)N[C@@H](C)C(=O)N[C@@H](C)C(=O)N[C@@H](CCCCN)C(=O)N[C@@H](CCCCN)C(=O)N[C@H](C(=O)N[C@@H](C)C(=O)N[C@@H](C)C(=O)N[C@@H](CCCCN)C(=O)N[C@@H](CC(C)C)C(=O)N[C@@H](CC(C)C)C(N)=O)C(C)C)[C@@H](C)CC` [tB2U-6K] (H-GVIIKKLKGAAKKVAAKLL-NH2), the MBIC in data set [2] turned out to be 32 µM. In data set [3], the “survival rate of waxworms treated with peptide” value was 100%. In data set [1], the MBEC is > 512 µM and the MBIC was 2 µM. In the data set with E. coli (ATCC BAA-2340), the MBC was 8 µM (≈ 15.6 µg/mL) and the MIC was 8 µM (≈ 15.6 µg/mL).
`CC[C@H](C)[C@H](NC(=O)[C@@H](NC(=O)CN)C(C)C)C(=O)N[C@H](C(=O)N[C@@H](CCCCN)C(=O)N[C@H](C(=O)N[C@@H](CC(C)C)C(=O)N[C@@H](CCCCN)C(=O)NCC(=O)N[C@@H](C)C(=O)N[C@@H](C)C(=O)N[C@@H](CCCCN)C(=O)N[C@H](C(=O)N[C@H](C(=O)N[C@@H](C)C(=O)N[C@@H](C)C(=O)N[C@@H](CCCCN)C(=O)N[C@@H](CC(C)C)C(=O)N[C@@H](CC(C)C)C(N)=O)C(C)C)[C@@H](C)O)[C@@H](C)O)[C@@H](C)CC` [tB2U-K] (H-GVIIKTLKGAAKTVAAKLL-NH2) came in with an MBIC in data set [2] of 16 µM. For the same molecule, the “survival rate of waxworms treated with peptide” value in data set [3] came out at 100%. In addition, in data set [1], the MBEC was > 512 µM and the MBIC amounted to 16 µM. In the data set on E. coli (ATCC BAA-2340), the MBC stood at 16 µM (≈ 30.3 µg/mL) and the lowest concentration to inhibit growth (MIC) was 16 µM (≈ 30.3 µg/mL).
Consider `CC[C@H](C)[C@H](NC(=O)[C@@H](NC(=O)CN)C(C)C)C(=O)N[C@H](C(=O)N[C@@H](CC(=O)O)C(=O)N[C@H](C(=O)N[C@@H](CC(C)C)C(=O)N[C@@H](CCCCN)C(=O)NCC(=O)N[C@@H](C)C(=O)N[C@@H](C)C(=O)N[C@@H](CCCCN)C(=O)N[C@H](C(=O)N[C@H](C(=O)N[C@@H](C)C(=O)N[C@@H](C)C(=O)N[C@@H](CCC(=O)O)C(=O)N[C@@H](CC(C)C)C(=O)N[C@@H](CC(C)C)C(N)=O)C(C)C)[C@@H](C)O)[C@@H](C)O)[C@@H](C)CC` [tB2U-α] (H-GVIIDTLKGAAKTVAAELL-NH2), for which, in data set [1], the MBEC is >512 µM and the MBIC is >512 µM. For the same molecule, in the data set on E. coli (ATCC BAA-2340), the MBC is >512 µM and the MIC was >512 µM.
For the molecule `CC[C@H](C)[C@H](NC(=O)[C@@H](NC(=O)CN)C(C)C)C(=O)N[C@H](C(=O)N[C@@H](CC(=O)O)C(=O)N[C@H](C(=O)N[C@@H](CC(C)C)C(=O)N[C@@H](CCCCN)C(=O)NCC(=O)N[C@@H](C)C(=O)N[C@@H](C)C(=O)N[C@@H](CCCCN)C(=O)N[C@H](C(=O)N[C@H](C(=O)N[C@@H](C)C(=O)N[C@@H](C)C(=O)N[C@@H](CCC(=O)O)C(=O)N[C@@H](CC(C)C)C(=O)N[C@@H](CC(C)C)C(=O)N[C@@H](CCCNC(=N)N)C(=O)N[C@@H](CCCCN)C(=O)N[C@@H](C)C(=O)N[C@@H](Cc1c[nH]cn1)C(N)=O)C(C)C)[C@@H](C)O)[C@@H](C)O)[C@@H](C)CC` [tB2U] (H-GVIIDTLKGAAKTVAAELLRKAH-NH2), in data set [1], the MBEC is >512 µM and the MBIC was >512 µM.
